Assay [1] relates to Actinobacillus pleuropneumoniae (App). The assay can be described thus: App challenge of pigs, prophylactic recombinant IL-1ra, plasmid IL-1ra or flunix (Example 5). The assay is classed as in vivo. Particulars: day 13 after challenge compared with pre-challenge levels; FIG. 35.
For assay [2] the test system is unchanged. The assay is described as above. More on the design: improvements in weight gain over saline controls / reduction in weight gain compared to saline controls / reduction in clinical symptoms compared to saline / reduction of pleurisy compared to saline treated controls / reduction in affected lung mass compared to saline treated controls: concentration or dose not given beside the values. The assay is classed as in vivo. On the procedure: Male pigs, with a mean starting weight of 52 kg, were allocated to 5 treatment groups as outlined in Table 6. Pigs were housed in group pens, with each pen containing a replicate from each of the treatment groups. The starting weights of each treatment group and each pen were equal prior to the start of the trial. Pigs were provided with pelleted feed and water ad libitum.
Recombinant IL-1ra and saline-were administered as 1 ml doses, given subcutaneously behind the ear. Plasmids were administered in 1 ml doses, given intramuscularly in the hind-leg. Flunix was administered as a 2 ml dose according to the manufacturer's instructions, and delivered intramuscularly in the neck. The timetable of administration is outlined in Table 6 below.
Prior to challenge, pigs were treated with recombinant cytokines, flunix or plasmids as described Table 7. Pigs were anaesthetised and infected intratracheally with 7.5×10^5 pfu App on day 0.
Blood was sampled from pigs by venipuncture at 0, 24 h and 14 days post-challenge. Blood was assayed for immunological parameters as previously described. Pigs were weighed weekly from delivery of plasmids and for 2 weeks after challenge.
At the conclusion of the trial, pigs were euthanased and the lungs removed for post-mortem examination. Lungs were scored for pleurisy from 0-5 (FIGS. 39 and 40) and the degree of pleuropneumonia was determined by weighing affected lung and expressed as a percentage of total lung weight (FIGS. 41 and 42). Pigs treated with flunix and IL-1ra had less pleurisy than the saline controls (FIG. 39).

With `Cc1c(Nc2ncccc2C(=O)O)cccc1C(F)(F)F` [flunix, reference compound], in assay [1], the “levels of TNFα protein in the serum” value is listed as “failed to inhibit the production of TNFα”. Besides, the “reduction in weight gain compared to saline controls” value in assay [2] (14d App challenge, FIG. 33) is on record as 84.6%. Also, the “production of IL-6 (mRNA in peripheral blood)” value in assay [2] (after App challenge, compared with saline treated controls, FIG. 36) is “reduce the production of IL-6 only”. Besides, in assay [2] (first week after App challenge, FIG. 30), the “growth during the week of challenge” value was “weight loss”. The “reduction in affected lung mass compared to saline treated controls” value in assay [2] (percentage of lung affected by App lesions, FIG. 42) was 64.1%. For the same compound, the “reduction of pleurisy compared to saline treated controls” value in assay [2] (pleurisy score 0-5 at necropsy, FIG. 40) was found to be 55.6%.

The values are drawn from patent publication US20060122105A1, “Method of improing the growth performance of an animal” (priority 2001, published 2006).
